Measurements taken from patent US8685934B2, “Methods for treating extreme insulin resistance in patients resistant to previous treatment with other anti-diabetic drugs employing an SGLT2 inhibitor and compositions thereof” (Bristol-Myers Squibb Company, priority 2009, dated 2014).
Like-named read-outs stand apart in the source and are kept apart here.

Tested on: highly insulin-resistant T2DM patients poorly controlled with insulin plus metformin and/or thiazolidinediones
Conditions: for Total daily insulin dose, mean (SD), End of Double-blind (Week 12 LOCF) / Total daily insulin dose, change from baseline, mean (95% CI): includes data after insulin up-titration; for Total daily insulin dose, mean (SD), End of Double-blind (Week 12 LOCF): U = units of U100 insulin; for Postprandial glucose, mean (SD), End of Double-blind (Week 12 LOCF): measured at 120 minutes by OGTT; for Postprandial glucose, change from baseline, mean (95% CI): 120 minutes by OGTT; for Fasting plasma glucose, change from baseline, mean (95% CI) / HbA1c, change from baseline, mean (95% CI) / Weight, change from baseline, mean (95% CI) / Total daily insulin dose, change from baseline, mean (95% CI): ANCOVA-adjusted
Method: Criteria for management of hyperglycemia were determined by fasting plasma glucose (FPG) measurements. For any FPG level >240 mg/dL at weeks 4 and 6, >220 mg/dL at week 8, or >200 mg/dL at week 10, the patient would be scheduled for a follow-up visit in 3 to 5 days. If FPG was still above the threshold at follow-up, a visit was scheduled in order to increase the insulin dose as clinically indicated. Patients who further lacked glycemic control despite up-titration, or whose modified insulin dose exceeded baseline, were discontinued from blinded treatment and entered into follow-up.
All patients were on insulin-sensitizer therapy for at least 6 weeks prior to enrollment and insulin-based therapy for at least 12 weeks prior to enrollment. The study protocol defined insulin-sensitizer therapy as metformin (stable dose ≧1000 mg) and/or pioglitazone (stable dose ≧30 mg) or rosiglitazone (stable dose 4 mg). Insulin-based therapy was defined as subcutaneous insulin for at least 12 weeks prior to enrollment, with 2 minimum insulin daily dose equivalent to 50 units (median 85 to 93 units across all study arms) of U100 insulin per day. The insulin regimen must have been stable for at least 6 weeks. In addition to 10 mg dapagliflozin or 20 mg dapagliflozin daily or placebo, 74.6% of patients received metformin (≧1000 mg daily) plus insulin; 16.9% of patients received metformin (≧1000 mg daily) plus pioglitazone (≧30 mg daily) or rosiglitazone (4 mg daily) plus insulin and 8.5% of patients received pioglitazone (≧30 mg daily) or rosiglitazone (4 mg daily) plus insulin.
Patients in Cohort 1 were evaluated for safety only. Patients in Cohort 2 were evaluated for safety and efficacy. The primary efficacy measure was change from baseline in HbAlc, at week 12, last observation carried forward (LOCF). If no week 12 assessment was available, the last observation prior to week 12 was used. Secondary efficacy measures included changes from baseline at week 12 (LOCF) in FPG and insulin dose, the proportion of patients achieving a decrease in HbAlc>0.5% from baseline at week 12 (LOCF), and the proportion of patients achieving HbAlc<7% at week 12 (LOCF). Tertiary endpoints included changes from baseline in total body weight and in postprandial glucose (PPG) measured by an oral glucose tolerance test (OGTT).
Patients in Cohort 2 were evaluated for safety and efficacy. The primary efficacy measure was change from baseline in HbAlc at week 12, last observation carried forward (LOCF). The analysis was done excluding data after up-titration of insulin. If no week 12 assessment was available, the last observation prior to week 12 was used.
For Cohort 2, the sample size target of 22 patients per treatment group was chosen to allow for the calculation of 95% confidence intervals for the primary endpoint with a half-width of 0.42% for each treatment group. This assumed a 1% standard deviation for the primary endpoint in each of the dapagliflozin and placebo arms. With the same assumption, the half-width of a 95% confidence interval for the difference between any two treatment mean changes was estimated to be 0.59%. The primary efficacy data set consisted of all randomized patients who took at least one dose of double-blind study medication during the treatment phase. The analyses of the efficacy variables (except change from baseline in insulin dose) were done excluding data after up-titration of insulin. The analyses for changes from baseline in HbAlc, FPG, insulin dose, and total body weight at week 12 (LOCF) were performed using an analysis of covariance (ANCOVA) model with treatment group as an effect and baseline value as a covariate. Point estimates and 95% confidence intervals were calculated for mean changes within each treatment group and for differences in mean changes between the dapagliflozin and placebo groups.

[1] = Dapagliflozin 10 mg + insulin + OAD, excludes data after insulin up-titration
[2] = Dapagliflozin 10 mg + insulin + OAD, week 12 LOCF
[3] = Dapagliflozin 10 mg + insulin + OAD, week 12 LOCF, excludes data after insulin up-titration
[4] = Dapagliflozin 10 mg + insulin + OAD, week 12 LOCF, excludes data after insulin up-titration, listed as dapagliflozin
[5] = Dapagliflozin 10 mg + insulin + OAD, week 12 LOCF, of 23 patients, excludes data after insulin up-titration
[6] = Dapagliflozin 20 mg + insulin + OAD, excludes data after insulin up-titration
[7] = Dapagliflozin 20 mg + insulin + OAD, week 12 LOCF
[8] = Dapagliflozin 20 mg + insulin + OAD, week 12 LOCF, excludes data after insulin up-titration
[9] = Dapagliflozin 20 mg + insulin + OAD, week 12 LOCF, excludes data after insulin up-titration, listed as dapagliflozin

CCOc1ccc(Cc2cc([C@@H]3O[C@H](CO)[C@@H](O)[C@H](O)[C@H]3O)ccc2Cl)cc1 [Dapagliflozin, (2S,3R,4R,5S,6R)-2-(4-chloro-3-(4-ethoxybenzyl)phenyl)-6-(hydroxymethyl)tetrahydro-2H-pyran-3,4,5-triol]
Reductions in HbAlc and improvements over placebo in FPG and PPG, dose relation, in words (10 and 20 mg dapagliflozin): dose-dependent
Change from baseline in total daily insulin dose, in words (Cohort 2, week 12): no appreciable change
Fasting plasma glucose, mean (SD), End of Double-blind (Week 12 LOCF) [1]: 160.5 (38.7) mg/dL
Weight, mean (SD), End of Double-blind (Week 12 LOCF) [1]: 98.2 (9.4) kg
Total daily insulin dose, mean (SD), End of Double-blind (Week 12 LOCF) (Dapagliflozin 10 mg + insulin + OAD): 51.3 (20.1) U
Postprandial glucose, mean (SD), End of Double-blind (Week 12 LOCF) [1]: 286.0 (55.1) mg/dL
Fasting plasma glucose change from baseline, difference vs placebo + insulin + OAD, mean (95% CI) [2]: −15.4 (−38.4 to 7.5) mg/dL
HbA1c change from baseline, difference vs placebo + insulin + OAD, mean (95% CI) [2]: −0.70 (−1.08 to −0.32) %
Patients with ↓ HbA1c ≧ 0.5%, difference in proportions vs placebo + insulin + OAD (95% CI) [2]: 49.4 (20.1 to 72.4) %
Total daily insulin dose change from baseline, difference vs placebo + insulin + OAD, mean (95% CI) [2]: −3.1 (−10.7 to 4.6) U
Weight change from baseline, difference vs placebo + insulin + OAD, mean (95% CI) [2]: −2.6 (−4.0 to −1.2) kg
Postprandial glucose, change from baseline, mean (95% CI) [3]: −34.3 (−67.5 to −1.1) mg/dL
Fasting plasma glucose, change from baseline, mean (95% CI) [3]: 2.4 (−13.6 to 18.3) mg/dL
HbA1c, change from baseline, mean (95% CI) [3]: −0.61 (−0.87 to −0.36) %
Weight, change from baseline, mean (95% CI) [3]: −4.5 (−5.5 to −3.5) kg
Fasting plasma glucose, change from baseline, mean (95% CI) [4]: 2.4 mg/dL
Weight, change from baseline, mean (95% CI) [4]: -4.5 kg
Total daily insulin dose, change from baseline, mean (95% CI) [2]: −1.4 (−6.6 to 3.9) U
Patients with HbA1c < 7.0%, (%), response [3]: 13.0%
Patients with ↓ HbA1c ≧ 0.5%, (%), response [3]: 65.2%
HbA1c change from baseline, difference vs placebo + insulin + OAD, mean (95% CI) (Dapagliflozin 10 mg + insulin + OAD, week 12 LOCF, listed as dapagliflozin): −0.70%
Patients with HbA1c < 7.0%, No., response [5]: 3
Patients with ↓ HbA1c ≧ 0.5%, No., response [5]: 15
HbA1c, mean (SD), End of Double-blind (Week 12 LOCF) (Dapagliflozin 10 mg once daily + insulin (50% of usual dose) + OAD, Cohort 2, excludes data after insulin up-titration): 7.8 (0.7) %
Fasting plasma glucose, mean (SD), End of Double-blind (Week 12 LOCF) [6]: 149.4 (32.0) mg/dL
Weight, mean (SD), End of Double-blind (Week 12 LOCF) [6]: 97.8 (14.1) kg
Total daily insulin dose, mean (SD), End of Double-blind (Week 12 LOCF) (Dapagliflozin 20 mg + insulin + OAD): 53.5 (32.1) U
Postprandial glucose, mean (SD), End of Double-blind (Week 12 LOCF) [6]: 272.6 (51.2) mg/dL
Fasting plasma glucose change from baseline, difference vs placebo + insulin + OAD, mean (95% CI) [7]: −27.4 (−50.3 to −4.6) mg/dL
HbA1c change from baseline, difference vs placebo + insulin + OAD, mean (95% CI) [7]: −0.78 (−1.16 to −0.40) %
Patients with ↓ HbA1c ≧ 0.5%, difference in proportions vs placebo + insulin + OAD (95% CI) [7]: 49.4 (20.1 to 72.4) %
Total daily insulin dose change from baseline, difference vs placebo + insulin + OAD, mean (95% CI) [7]: −2.5 (−10.2 to 5.1) U
Weight change from baseline, difference vs placebo + insulin + OAD, mean (95% CI) [7]: −2.4 (−3.8 to −1.0) kg
Postprandial glucose, change from baseline, mean (95% CI) [8]: −41.9 (−74.8 to −8.9) mg/dL
Fasting plasma glucose, change from baseline, mean (95% CI) [8]: −9.6 (−25.6 to 6.3) mg/dL
HbA1c, change from baseline, mean (95% CI) [8]: −0.69 (−0.94 to −0.43) %
Weight, change from baseline, mean (95% CI) [8]: −4.3 (−5.3 to −3.3) kg
Fasting plasma glucose, change from baseline, mean (95% CI) [9]: -9.6 mg/dL
Weight, change from baseline, mean (95% CI) [9]: -4.3 kg
Total daily insulin dose, change from baseline, mean (95% CI) [7]: −0.8 (−6.1 to 4.5) U
Patients with HbA1c < 7.0%, (%), response [8]: 4.3%
Patients with ↓ HbA1c ≧ 0.5%, (%), response [8]: 65.2%
HbA1c change from baseline, difference vs placebo + insulin + OAD, mean (95% CI) (Dapagliflozin 20 mg + insulin + OAD, week 12 LOCF, listed as dapagliflozin): −0.78%
Patients with HbA1c < 7.0%, No., response (Dapagliflozin 20 mg + insulin + OAD, week 12 LOCF, of 23 patients, excludes data after insulin up-titration): 1
